# Data: US8404738B2 (Hoffmann-La Roche Inc., priority 2011, dated 2013)
# Where two headings read alike, the source gives them in different places.
# How the values were obtained:
# recombinant human HDAC8 = target: T1, recombinant human HDAC8 (Homo sapiens, UniProt Q9BY41); test: HDAC8 inhibition: recombinant HDAC8 fluorometric assay; assay type: biochemical
# T1 construct: made in house; host or cells: insect cells
# T1 sequence (Q9BY41 1-377): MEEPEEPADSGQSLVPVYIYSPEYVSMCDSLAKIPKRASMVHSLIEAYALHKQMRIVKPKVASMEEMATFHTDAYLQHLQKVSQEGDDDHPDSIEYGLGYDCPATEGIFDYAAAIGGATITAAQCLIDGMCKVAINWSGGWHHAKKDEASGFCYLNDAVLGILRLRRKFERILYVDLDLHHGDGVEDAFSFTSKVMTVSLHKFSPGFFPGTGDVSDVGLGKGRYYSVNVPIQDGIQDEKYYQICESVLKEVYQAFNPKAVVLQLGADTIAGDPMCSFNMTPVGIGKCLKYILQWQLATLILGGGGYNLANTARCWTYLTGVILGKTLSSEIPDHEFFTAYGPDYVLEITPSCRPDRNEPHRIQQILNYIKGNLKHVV
# Experimental: HDAC8 Inhibition by Novel Compounds: Recombinant HDAC8 Fluorometric Assay.
# A competitive inhibitory assay of HDAC8 was carried out by using recombinant HDAC8 and a commercial substrate Ac-Arg-His-Lys-Lys(ε-acetyl)-AMC.
# Compounds were tested for their ability to inhibit histone deacetylase 8 using an in vitro deacetylation assay. The enzyme source for this assay was recombinant human HDAC8 protein expressed and purified from insect cells. […] The substrate consisted of a commercial product Ac-Arg-His-Lys-Lys(ε-acetyl)-AMC (substrate is available from Cayman Chemical). […] 1 μl of half-log diluted compounds were added into wells and incubated for 15 min at rt. After that, 8 μl of substrate solution was transferred to the wells and incubated for 30 min at rt. After deacetylation of the substrate by incubation with HDAC8 enzyme, subsequent exposure to a developing reagent produced a fluorophore that was directly proportional to the level of deacetylation. […] The fluorescence signal was measured by a FlexStation3 plate reader (excitation wave length 340-360 nm; emission wave length 440-465 nm). The HDAC8 IC50 was calculated after normalization and curve fitting using XLfit4.0 software. Inhibition %=[Mean(top)−signal(sample)]×100/[Mean(top)−Mean(bottom)].
# HDAC6 = target: T2, HDAC6 (Homo sapiens, UniProt Q9UBN7); test: Tubulin acetylation cytoblot assay (A549 cells); assay type: cell-based; settings: 17-18 h incubation, tubulin acetylation as marker of HDAC6 inhibition, read-out: Tub-Ac EC50
# T2 construct: endogenous in cells; host or cells: A549 cells
# T2 sequence (Q9UBN7 1-1215): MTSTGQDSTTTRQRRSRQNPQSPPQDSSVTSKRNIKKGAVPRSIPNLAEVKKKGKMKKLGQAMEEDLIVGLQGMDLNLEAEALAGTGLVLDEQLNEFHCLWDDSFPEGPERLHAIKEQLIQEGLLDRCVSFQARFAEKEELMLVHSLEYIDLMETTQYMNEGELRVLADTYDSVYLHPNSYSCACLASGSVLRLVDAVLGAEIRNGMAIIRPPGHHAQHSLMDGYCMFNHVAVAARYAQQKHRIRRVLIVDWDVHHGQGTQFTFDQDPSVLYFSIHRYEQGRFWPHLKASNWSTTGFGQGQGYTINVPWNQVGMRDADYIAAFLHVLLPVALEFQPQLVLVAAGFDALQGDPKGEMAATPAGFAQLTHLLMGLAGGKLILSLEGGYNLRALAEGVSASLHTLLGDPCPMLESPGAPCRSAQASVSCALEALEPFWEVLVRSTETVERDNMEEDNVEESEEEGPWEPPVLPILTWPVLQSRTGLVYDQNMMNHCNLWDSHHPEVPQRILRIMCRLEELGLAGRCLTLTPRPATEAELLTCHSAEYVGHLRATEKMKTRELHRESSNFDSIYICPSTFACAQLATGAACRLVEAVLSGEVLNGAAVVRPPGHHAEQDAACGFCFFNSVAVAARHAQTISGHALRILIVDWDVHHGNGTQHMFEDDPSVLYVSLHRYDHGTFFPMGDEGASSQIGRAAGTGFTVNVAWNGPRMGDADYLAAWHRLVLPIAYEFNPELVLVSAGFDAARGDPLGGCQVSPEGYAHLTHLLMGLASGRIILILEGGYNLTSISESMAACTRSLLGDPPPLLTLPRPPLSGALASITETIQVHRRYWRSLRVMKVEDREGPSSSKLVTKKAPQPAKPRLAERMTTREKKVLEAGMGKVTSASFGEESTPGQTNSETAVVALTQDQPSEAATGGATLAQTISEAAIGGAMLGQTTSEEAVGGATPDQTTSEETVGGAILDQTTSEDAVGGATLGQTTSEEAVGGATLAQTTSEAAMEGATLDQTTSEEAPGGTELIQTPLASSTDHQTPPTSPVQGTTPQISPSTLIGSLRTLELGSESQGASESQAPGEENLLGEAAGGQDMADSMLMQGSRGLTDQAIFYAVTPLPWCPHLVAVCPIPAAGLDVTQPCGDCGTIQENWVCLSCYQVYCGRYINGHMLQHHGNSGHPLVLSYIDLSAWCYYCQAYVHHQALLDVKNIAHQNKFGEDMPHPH
# Experimental: Tubulin Acetylation Induction by Novel Compounds: Tubulin Acetylation Cytoblot Assay.
# Tubulin acetylation is a PD marker for HDAC6 inhibition. The extent of tubulin acetylation represents the inhibitory effect on HDAC6.
# Novel compounds were tested for their ability to inhibit HDAC6 using a cell-based deacetylation assay. Tubulin acetylation was detected by the anti-acetylated tubulin antibody (Sigma) and horse radish peroxidase (HRP) conjugated secondary antibody (KangChen Bio. Tech.). […] 20 μl of diluted compound solution was transferred to the cell culture plate and incubated for 17-18 h. After medium removal and fixation by formaldehyde (3.7% paraformaldehyde in TBS), the cells in the plates were treated with 180 μl of −20° C. MeOH and incubated for 5 min at rt. The cell lysis was incubated with 75 μl of primary anti-acetylated tubulin antibody and secondary HRP conjugated antibody solution (1:750 anti-acetylated tubulin, 1:750 HRP conjugated anti-mouse IgG in antibody dilution buffer not containing sodium azide) for 4 h at 4° C. By adding the HRP substrate, enhanced chemiluminescence (ECL) reagent (GE Healthcare) generated luminescence corresponding to the level of tubulin acetylation. So that 75 μl of ECL was added into the wells and the luminescence from each well was immediately quantified by the plate reader. Based on the luminescence reading, the Tub-Ac EC50s against HDAC6 of the tested compounds were calculated by plotting the curve with XLfit4.0 software. Inhibition %=[signal(sample)−Mean(bottom)]×100/[Mean(top)−Mean(bottom)]
# [1] = tested on: p21 promoter-luciferase construct; test: p21 reporter gene induction (HeLa cells, p21 promoter-luciferase construct); settings: for p21 RP3: relative gene level of p21 compared to MS275 at 3 μM; for p21 RP10: relative level of p21 compared to MS275 at 10 μM; for p21 RP30: relative level of p21 compared to MS275 at 30 μM;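 as to all read-outs here: transfected HeLa cells exposed to compound for 15 h, luciferase luminescence read from lysates, p21 promoter lacks p53 site, proxy for cellular HDAC1/2/3 inhibition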
# [2] = recombinant human HDAC8, substrate Ac-Arg-His-Lys-Lys(ε-acetyl)-AMC, read-out: HDAC8 IC50
SMILES,IC50 (recombinant human HDAC8; [2]) [nM],EC50 (HDAC6) [nM],p21 RP3 [1],p21 RP10 [1],p21 RP30 [1],"IC50 (recombinant human HDAC8; HDAC8 IC50, recombinant human HDAC8, substrate Ac-Arg-His-Lys-Lys(ε-acetyl)-AMC) [nM]"
"C[C@H]1[C@H](Nc2ccc(C(=O)NO)cc2)CC(=O)N1c1ccc(Cl)cc1 (racemic) [Example 77, Trans-4-[1-(4-Chloro-phenyl)-2-methyl-5-oxo-pyrrolidin-3-ylamino]-N-hydroxy-benzamide]",850,1250,0.00,0.07,0.07,–
O=C(NO)c1ccc(NC2CCN(c3ccccc3)C2=O)cc1 (stereo not shown) [Example 1],–,5860,0.08,0.08,0.15,810
"O=C(NO)c1ccc(NC2CCN(c3ccccc3Cl)C2=O)cc1 (stereo not shown) [Example 5, 4-[1-(2-Chloro-phenyl)-2-oxo-pyrrolidin-3-ylamino]-N-hydroxy-benzamide]",370,6670,−0.01,0.06,0.08,–
"O=C(NO)c1ccc(NC2CCN(c3cccc(Cl)c3)C2=O)cc1 (stereo not shown) [Example 6, 4-[1-(3-Chloro-phenyl)-2-oxo-pyrrolidin-3-ylamino]-N-hydroxy-benzamide]",720,2820,0.03,0.15,0.15,–
"CC(C)Oc1cccc(N2CCC(Nc3ccc(C(=O)NO)cc3)C2=O)c1 (stereo not shown) [Example 9, N-Hydroxy-4-[1-(3-isopropoxy-phenyl)-2-oxo-pyrrolidin-3-ylamino]-benzamide]",1300,1730,0.24,0.13,0.23,–
"CC1(Nc2ccc(C(=O)NO)cc2)C(=O)N(CCc2ccccc2)c2ccccc21 (stereo not shown) [Example 94, N-hydroxy-4-(3-methyl-2-oxo-1-phenethyl-2,3-dihydro-1H-indol-3-ylamino)-benzamide]",980,150,–,–,–,–

# More lines, main results first:
IC50 (recombinant human HDAC8; [2]) [nM],EC50 (HDAC6) [nM],SMILES,p21 RP3 [1],p21 RP10 [1],p21 RP30 [1],"IC50 (recombinant human HDAC8; HDAC8 IC50, recombinant human HDAC8, substrate Ac-Arg-His-Lys-Lys(ε-acetyl)-AMC) [nM]"
840,4020,"O=C(NO)c1ccc(NC2CCN(c3ccccc3F)C2=O)cc1 (stereo not shown) [Example 2, 4-[1-(2-Fluoro-phenyl)-2-oxo-pyrrolidin-3-ylamino]-N-hydroxy-benzamide]",0.33,0.26,0.46,–
1090,1560,"O=C(NO)c1ccc(NC2CCN(c3cccc(F)c3)C2=O)cc1 (stereo not shown) [Example 3, 4-[1-(3-Fluoro-phenyl)-2-oxo-pyrrolidin-3-ylamino]-N-hydroxy-benzamide]",0.18,0.06,0.08,–
890,3890,"O=C(NO)c1ccc(NC2CCN(c3ccc(F)cc3)C2=O)cc1 (stereo not shown) [Example 4, 4-[1-(4-Fluoro-phenyl)-2-oxo-pyrrolidin-3-ylamino]-N-hydroxy-benzamide]",0.43,0.31,0.48,–
590,4120,"COc1cccc(N2CCC(Nc3ccc(C(=O)NO)cc3)C2=O)c1 (stereo not shown) [Example 8, N-Hydroxy-4-[1-(3-methoxy-phenyl)-2-oxo-pyrrolidin-3-ylamino]-benzamide]",0.09,0.15,0.29,–
1800,2150,"CC(C)Oc1ccc(N2CCC(Nc3ccc(C(=O)NO)cc3)C2=O)cc1 (stereo not shown) [Example 10, N-Hydroxy-4-[1-(4-isopropoxy-phenyl)-2-oxo-pyrrolidin-3-ylamino]-benzamide]",0.07,0.05,0.05,–
2230,8310,"O=C(NO)c1ccc(NC2CCN(c3cccc(C(F)(F)F)c3)C2=O)cc1 (stereo not shown) [Example 11, N-Hydroxy-4-[2-oxo-1-(3-trifluoromethyl-phenyl)-pyrrolidin-3-ylamino]-benzamide]",0.39,0.08,0.04,–
740,1530,"CC(C)c1cccc(N2CCC(Nc3ccc(C(=O)NO)cc3)C2=O)c1 (stereo not shown) [Example 13, N-Hydroxy-4-[1-(3-isopropyl-phenyl)-2-oxo-pyrrolidin-3-ylamino]-benzamide]",0.29,0.19,0.09,–
3180,2610,"CC(C)c1ccc(N2CCC(Nc3ccc(C(=O)NO)cc3)C2=O)cc1 (stereo not shown) [Example 14, N-Hydroxy-4-[1-(4-isopropyl-phenyl)-2-oxo-pyrrolidin-3-ylamino]-benzamide]",0.13,0.07,0.06,–
